According to ChEMBL document CHEMBL4507297, “Data for DCP probe PF-04457845” (2021):

Assays:
[1] = tested on: Tyrosine-protein kinase ABL1 (Homo sapiens), P00519 [H396P]; conditions: Compound concentration 1000.0 nM
[2] = tested on: Tyrosine-protein kinase ABL1 (Homo sapiens), P00519 [T315I]; conditions: Compound concentration 1000.0 nM
[3] = molecular target: Activin receptor type-2A (Homo sapiens) (UniProt P27037); conditions: Compound concentration 1000.0 nM
[4] = molecular target: 5'-AMP-activated protein kinase catalytic subunit alpha-2 (Homo sapiens) (UniProt P54646); conditions: Compound concentration 1000.0 nM
[5] = molecular target: Serine/threonine-protein kinase BRSK1 (Homo sapiens) (UniProt Q8TDC3); conditions: Compound concentration 1000.0 nM
[6] = molecular target: Calcium/calmodulin-dependent protein kinase type II subunit alpha (Homo sapiens) (UniProt Q9UQM7); conditions: Compound concentration 1000.0 nM
[7] = molecular target: Cyclin-dependent kinase-like 2 (Homo sapiens) (UniProt Q92772); conditions: Compound concentration 1000.0 nM
[8] = molecular target: Dual specificity protein kinase CLK1 (Homo sapiens) (UniProt P49759); conditions: Compound concentration 1000.0 nM
[9] = molecular target: Macrophage colony-stimulating factor 1 receptor (Homo sapiens) (UniProt P07333); conditions: Compound concentration 1000.0 nM
[10] = tested on: Epidermal growth factor receptor (Homo sapiens), P00533 [UNDEFINED MUTATION]; conditions: Compound concentration 1000.0 nM
[11] = tested on: Epidermal growth factor receptor (Homo sapiens), P00533 [UNDEFINED MUTATION]; conditions: Compound concentration 1000.0 nM; remark: listed apart in the source
[12] = tested on: Epidermal growth factor receptor (Homo sapiens), P00533 [L858R,T790M]; conditions: Compound concentration 1000.0 nM
[13] = tested on: Epidermal growth factor receptor (Homo sapiens), P00533 [L861Q]; conditions: Compound concentration 1000.0 nM
[14] = tested on: Epidermal growth factor receptor (Homo sapiens), P00533 [UNDEFINED MUTATION]; conditions: Compound concentration 1000.0 nM; remark: listed apart in the source
[15] = molecular target: Ephrin type-B receptor 1 (Homo sapiens) (UniProt P54762); conditions: Compound concentration 1000.0 nM
[16] = tested on: Receptor-type tyrosine-protein kinase FLT3 (Homo sapiens), P36888 [D835V]; conditions: Compound concentration 1000.0 nM
[17] = tested on: Receptor-type tyrosine-protein kinase FLT3 (Homo sapiens), P36888 [D835Y]; conditions: Compound concentration 1000.0 nM
[18] = tested on: Receptor-type tyrosine-protein kinase FLT3 (Homo sapiens), P36888 [UNDEFINED MUTATION]; conditions: Compound concentration 1000.0 nM
[19] = tested on: Receptor-type tyrosine-protein kinase FLT3 (Homo sapiens), P36888 [N841I]; conditions: Compound concentration 1000.0 nM
[20] = tested on: Receptor-type tyrosine-protein kinase FLT3 (Homo sapiens), P36888 [R834Q]; conditions: Compound concentration 1000.0 nM
[21] = molecular target: Insulin-like growth factor 1 receptor (Homo sapiens) (UniProt P08069); conditions: Compound concentration 1000.0 nM
[22] = molecular target: Insulin receptor (Homo sapiens) (UniProt P06213); conditions: Compound concentration 1000.0 nM
[23] = molecular target: Serine/threonine-protein kinase MAK (Homo sapiens) (UniProt P20794); conditions: Compound concentration 1000.0 nM
[24] = molecular target: Mitogen-activated protein kinase kinase kinase 4 (Homo sapiens) (UniProt Q9Y6R4); conditions: Compound concentration 1000.0 nM
[25] = molecular target: Maternal embryonic leucine zipper kinase (Homo sapiens) (UniProt Q14680); conditions: Compound concentration 1000.0 nM
[26] = molecular target: Dual specificity mitogen-activated protein kinase kinase 7 (Homo sapiens) (UniProt O14733); conditions: Compound concentration 1000.0 nM
[27] = molecular target: Macrophage-stimulating protein receptor (Homo sapiens) (UniProt Q04912); conditions: Compound concentration 1000.0 nM
[28] = molecular target: Mitogen-activated protein kinase 14 (Homo sapiens) (UniProt Q16539); conditions: Compound concentration 1000.0 nM
[29] = molecular target: Serine/threonine-protein kinase PAK 1 (Homo sapiens) (UniProt Q13153); conditions: Compound concentration 1000.0 nM
[30] = molecular target: Phosphatidylinositol 4,5-bisphosphate 3-kinase catalytic subunit alpha isoform (Homo sapiens) (UniProt P42336); conditions: Compound concentration 1000.0 nM
[31] = molecular target: Phosphatidylinositol 4,5-bisphosphate 3-kinase catalytic subunit gamma isoform (Homo sapiens) (UniProt P48736); conditions: Compound concentration 1000.0 nM
[32] = molecular target: Phosphatidylinositol 5-phosphate 4-kinase type-2 gamma (Homo sapiens) (UniProt Q8TBX8); conditions: Compound concentration 1000.0 nM
[33] = molecular target: Serine/threonine-protein kinase N1 (Homo sapiens) (UniProt Q16512); conditions: Compound concentration 1000.0 nM
[34] = molecular target: SNF-related serine/threonine-protein kinase (Homo sapiens) (UniProt Q9NRH2); conditions: Compound concentration 1000.0 nM
[35] = molecular target: SRSF protein kinase 2 (Homo sapiens) (UniProt P78362); conditions: Compound concentration 1000.0 nM
[36] = molecular target: Mitogen-activated protein kinase kinase kinase 7 (Homo sapiens) (UniProt O43318); conditions: Compound concentration 1000.0 nM
[37] = molecular target: Serine/threonine-protein kinase TAO1 (Homo sapiens) (UniProt Q7L7X3); conditions: Compound concentration 1000.0 nM
[38] = molecular target: Serine/threonine-protein kinase TBK1 (Homo sapiens) (UniProt Q9UHD2); conditions: Compound concentration 1000.0 nM
[39] = molecular target: Tyrosine-protein kinase Tec (Homo sapiens) (UniProt P42680); conditions: Compound concentration 1000.0 nM
[40] = molecular target: Transient receptor potential cation channel subfamily M member 6 (Homo sapiens) (UniProt Q9BX84); conditions: Compound concentration 1000.0 nM
[41] = molecular target: 5-hydroxytryptamine receptor 6 (Homo sapiens) (UniProt P50406); conditions: Compound concentration 10.0 uM
[42] = molecular target: D(4) dopamine receptor (Homo sapiens) (UniProt P21917); conditions: Compound concentration 10.0 uM
[43] = molecular target: Histamine H2 receptor (Homo sapiens) (UniProt P25021); conditions: Compound concentration 10.0 uM
[44] = molecular target: Histamine H3 receptor (Homo sapiens) (UniProt Q9Y5N1); conditions: Compound concentration 10.0 uM

Chain of Ephrin type-B receptor 1 (Homo sapiens) (P54762 whole entry): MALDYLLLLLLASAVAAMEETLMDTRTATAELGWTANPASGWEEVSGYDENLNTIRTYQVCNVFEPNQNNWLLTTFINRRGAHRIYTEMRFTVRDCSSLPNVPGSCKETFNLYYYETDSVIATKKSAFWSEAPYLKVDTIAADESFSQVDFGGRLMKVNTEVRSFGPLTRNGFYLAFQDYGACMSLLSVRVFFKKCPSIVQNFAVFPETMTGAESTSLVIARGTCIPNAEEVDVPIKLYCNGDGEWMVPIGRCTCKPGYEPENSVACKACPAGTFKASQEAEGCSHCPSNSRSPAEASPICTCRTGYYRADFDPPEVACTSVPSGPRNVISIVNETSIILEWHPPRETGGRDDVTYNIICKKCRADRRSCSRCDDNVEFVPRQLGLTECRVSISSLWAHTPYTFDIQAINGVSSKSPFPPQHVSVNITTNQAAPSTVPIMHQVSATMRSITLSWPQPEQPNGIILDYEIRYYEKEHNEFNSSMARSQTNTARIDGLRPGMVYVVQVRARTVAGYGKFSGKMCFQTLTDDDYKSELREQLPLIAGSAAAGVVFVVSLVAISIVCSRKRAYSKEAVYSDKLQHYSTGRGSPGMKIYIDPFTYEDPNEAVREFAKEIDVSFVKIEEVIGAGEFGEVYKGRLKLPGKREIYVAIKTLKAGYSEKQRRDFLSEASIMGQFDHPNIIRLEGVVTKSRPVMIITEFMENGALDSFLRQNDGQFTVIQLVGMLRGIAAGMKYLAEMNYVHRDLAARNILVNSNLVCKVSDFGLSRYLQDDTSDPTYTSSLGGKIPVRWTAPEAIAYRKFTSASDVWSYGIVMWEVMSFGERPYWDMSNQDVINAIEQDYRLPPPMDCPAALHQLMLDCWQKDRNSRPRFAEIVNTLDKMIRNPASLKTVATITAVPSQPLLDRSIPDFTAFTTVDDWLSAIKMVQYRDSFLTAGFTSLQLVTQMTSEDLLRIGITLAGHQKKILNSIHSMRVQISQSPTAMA
Chain of Phosphatidylinositol 4,5-bisphosphate 3-kinase catalytic subunit alpha isoform (Homo sapiens) (P42336 whole entry, canonical isoform): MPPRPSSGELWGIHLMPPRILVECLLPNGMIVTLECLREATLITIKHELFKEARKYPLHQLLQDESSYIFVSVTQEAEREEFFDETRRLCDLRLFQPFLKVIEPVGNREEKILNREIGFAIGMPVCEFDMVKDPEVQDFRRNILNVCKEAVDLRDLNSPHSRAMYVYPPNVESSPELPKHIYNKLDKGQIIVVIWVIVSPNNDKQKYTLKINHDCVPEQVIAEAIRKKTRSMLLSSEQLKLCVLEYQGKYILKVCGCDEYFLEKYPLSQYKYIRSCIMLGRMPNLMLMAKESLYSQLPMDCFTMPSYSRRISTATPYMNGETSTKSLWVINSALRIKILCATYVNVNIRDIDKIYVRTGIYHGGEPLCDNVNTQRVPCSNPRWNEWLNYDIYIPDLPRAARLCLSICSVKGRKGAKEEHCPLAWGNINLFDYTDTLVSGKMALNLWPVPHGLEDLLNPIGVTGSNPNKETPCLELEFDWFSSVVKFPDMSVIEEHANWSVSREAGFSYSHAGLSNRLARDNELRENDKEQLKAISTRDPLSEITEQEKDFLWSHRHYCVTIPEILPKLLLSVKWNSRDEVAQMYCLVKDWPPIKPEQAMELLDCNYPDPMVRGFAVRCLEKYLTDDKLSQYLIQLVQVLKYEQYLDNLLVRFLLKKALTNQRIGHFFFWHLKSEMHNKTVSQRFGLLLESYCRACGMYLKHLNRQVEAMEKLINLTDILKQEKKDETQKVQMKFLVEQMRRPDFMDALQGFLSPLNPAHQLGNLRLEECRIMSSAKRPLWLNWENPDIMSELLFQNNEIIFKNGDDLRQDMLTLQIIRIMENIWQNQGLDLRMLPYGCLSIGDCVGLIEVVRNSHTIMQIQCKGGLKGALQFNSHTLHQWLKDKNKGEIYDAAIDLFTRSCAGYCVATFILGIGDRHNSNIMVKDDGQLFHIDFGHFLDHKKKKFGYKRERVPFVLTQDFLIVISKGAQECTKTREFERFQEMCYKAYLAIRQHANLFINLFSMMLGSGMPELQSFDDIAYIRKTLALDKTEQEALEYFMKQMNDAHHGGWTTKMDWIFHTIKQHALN
Chain of Serine/threonine-protein kinase BRSK1 (Homo sapiens) (Q8TDC3 whole entry): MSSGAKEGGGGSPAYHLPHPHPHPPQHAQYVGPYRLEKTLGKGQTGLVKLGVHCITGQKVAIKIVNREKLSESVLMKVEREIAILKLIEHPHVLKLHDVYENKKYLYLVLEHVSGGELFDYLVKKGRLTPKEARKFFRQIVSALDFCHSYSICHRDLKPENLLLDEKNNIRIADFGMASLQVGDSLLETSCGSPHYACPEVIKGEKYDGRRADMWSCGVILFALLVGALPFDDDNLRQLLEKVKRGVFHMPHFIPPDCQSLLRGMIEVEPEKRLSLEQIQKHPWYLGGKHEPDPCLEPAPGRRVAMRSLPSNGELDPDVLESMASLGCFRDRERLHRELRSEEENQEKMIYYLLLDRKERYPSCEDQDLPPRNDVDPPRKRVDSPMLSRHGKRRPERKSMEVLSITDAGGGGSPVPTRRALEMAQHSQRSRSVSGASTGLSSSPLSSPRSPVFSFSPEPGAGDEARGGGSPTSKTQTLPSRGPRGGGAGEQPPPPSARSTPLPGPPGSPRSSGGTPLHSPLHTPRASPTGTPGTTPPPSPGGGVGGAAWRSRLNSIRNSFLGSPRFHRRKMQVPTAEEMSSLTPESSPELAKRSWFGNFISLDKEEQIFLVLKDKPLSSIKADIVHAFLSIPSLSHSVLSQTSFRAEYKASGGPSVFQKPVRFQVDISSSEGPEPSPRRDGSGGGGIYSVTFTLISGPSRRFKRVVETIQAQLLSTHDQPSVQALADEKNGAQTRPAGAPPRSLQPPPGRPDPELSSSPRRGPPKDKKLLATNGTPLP
Chain of Macrophage-stimulating protein receptor (Homo sapiens) (Q04912 25-304 limits assumed): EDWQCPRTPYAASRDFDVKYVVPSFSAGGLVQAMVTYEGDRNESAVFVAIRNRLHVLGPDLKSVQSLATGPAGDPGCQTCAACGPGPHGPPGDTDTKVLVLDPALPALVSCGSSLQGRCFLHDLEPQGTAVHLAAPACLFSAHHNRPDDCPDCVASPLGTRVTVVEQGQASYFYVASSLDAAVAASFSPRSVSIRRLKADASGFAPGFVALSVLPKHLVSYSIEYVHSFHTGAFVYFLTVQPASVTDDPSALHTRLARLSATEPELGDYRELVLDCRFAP
Chain of Macrophage-stimulating protein receptor (Homo sapiens) (Q04912 310-1400 limits assumed): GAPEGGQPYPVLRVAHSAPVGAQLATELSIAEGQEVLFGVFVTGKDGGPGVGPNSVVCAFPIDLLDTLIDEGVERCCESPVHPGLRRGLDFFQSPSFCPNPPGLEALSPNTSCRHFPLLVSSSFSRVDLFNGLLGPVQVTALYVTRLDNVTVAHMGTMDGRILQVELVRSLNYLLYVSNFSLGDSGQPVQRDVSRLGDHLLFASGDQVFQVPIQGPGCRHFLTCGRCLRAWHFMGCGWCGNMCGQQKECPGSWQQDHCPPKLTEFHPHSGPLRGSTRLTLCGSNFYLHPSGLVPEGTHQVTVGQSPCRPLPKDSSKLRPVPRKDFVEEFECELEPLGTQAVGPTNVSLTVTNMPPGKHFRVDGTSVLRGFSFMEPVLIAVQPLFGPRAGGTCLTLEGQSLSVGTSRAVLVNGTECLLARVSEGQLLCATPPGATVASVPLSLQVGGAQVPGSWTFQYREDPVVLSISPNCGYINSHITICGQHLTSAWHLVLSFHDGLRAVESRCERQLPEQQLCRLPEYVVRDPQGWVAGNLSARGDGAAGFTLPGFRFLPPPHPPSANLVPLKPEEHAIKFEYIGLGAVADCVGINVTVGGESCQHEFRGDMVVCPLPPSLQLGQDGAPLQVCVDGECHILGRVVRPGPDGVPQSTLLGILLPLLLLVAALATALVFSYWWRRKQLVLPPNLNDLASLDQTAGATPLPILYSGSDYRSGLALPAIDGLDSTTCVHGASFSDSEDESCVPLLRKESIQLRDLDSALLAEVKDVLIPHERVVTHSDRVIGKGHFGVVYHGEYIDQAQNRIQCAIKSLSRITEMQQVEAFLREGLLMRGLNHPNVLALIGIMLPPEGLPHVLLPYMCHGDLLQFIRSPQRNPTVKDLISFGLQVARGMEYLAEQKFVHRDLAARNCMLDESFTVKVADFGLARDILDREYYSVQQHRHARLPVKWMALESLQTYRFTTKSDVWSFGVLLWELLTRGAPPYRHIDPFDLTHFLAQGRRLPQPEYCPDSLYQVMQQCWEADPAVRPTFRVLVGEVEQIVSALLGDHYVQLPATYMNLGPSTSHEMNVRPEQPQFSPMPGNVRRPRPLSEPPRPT
Chain of SNF-related serine/threonine-protein kinase (Homo sapiens) (Q9NRH2 whole entry): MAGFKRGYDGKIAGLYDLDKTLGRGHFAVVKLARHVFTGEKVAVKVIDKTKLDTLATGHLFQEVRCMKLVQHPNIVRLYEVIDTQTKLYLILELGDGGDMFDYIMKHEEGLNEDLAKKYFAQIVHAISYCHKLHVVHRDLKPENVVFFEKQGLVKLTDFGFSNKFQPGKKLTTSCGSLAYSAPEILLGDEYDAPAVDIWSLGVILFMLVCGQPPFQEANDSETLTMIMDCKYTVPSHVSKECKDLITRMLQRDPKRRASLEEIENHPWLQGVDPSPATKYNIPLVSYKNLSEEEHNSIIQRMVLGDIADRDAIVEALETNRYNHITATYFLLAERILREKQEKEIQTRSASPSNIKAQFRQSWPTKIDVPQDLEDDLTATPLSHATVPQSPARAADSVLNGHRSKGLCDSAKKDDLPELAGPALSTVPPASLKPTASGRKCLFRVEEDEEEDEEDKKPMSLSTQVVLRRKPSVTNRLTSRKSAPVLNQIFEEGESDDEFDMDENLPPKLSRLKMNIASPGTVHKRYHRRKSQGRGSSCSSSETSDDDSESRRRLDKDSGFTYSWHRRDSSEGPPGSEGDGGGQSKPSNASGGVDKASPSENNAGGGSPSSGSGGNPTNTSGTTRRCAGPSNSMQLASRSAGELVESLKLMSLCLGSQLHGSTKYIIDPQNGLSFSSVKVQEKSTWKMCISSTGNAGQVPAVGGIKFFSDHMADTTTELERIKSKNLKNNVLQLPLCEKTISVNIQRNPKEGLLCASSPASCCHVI

O=C(Nc1cccnn1)N1CC(C/C=C/c2cncc(Oc3ccc(C(F)(F)F)cn3)n2)C1
inactive: residual activity [1] 76% | residual activity [2] 80% | residual activity [3] 100% | residual activity [4] 96% | residual activity [5] 100% | residual activity [6] 100% | residual activity [7] 100% | residual activity [8] 100% | residual activity [9] 100% | residual activity [10] 85% | residual activity [11] 100% | residual activity [12] 82% | residual activity [13] 100% | residual activity [14] 100% | residual activity [15] 100% | residual activity [16] 77% | residual activity [17] 100% | residual activity [18] 76% | residual activity [19] 62% | residual activity [20] 66% | residual activity [21] 100% | residual activity [22] 100% | residual activity [23] 100% | residual activity [24] 100% | residual activity [25] 100% | residual activity [26] 91% | residual activity [27] 100% | residual activity [28] 100% | residual activity [29] 90% | residual activity [30] 100% | residual activity [31] 100% | residual activity [32] 100% | residual activity [33] 100% | residual activity [34] 100% | residual activity [35] 100% | residual activity [36] 93% | residual activity [37] 91% | residual activity [38] 72% | residual activity [39] 100% | residual activity [40] 73% | inhibition [41] 7.76% | inhibition [42] 12.3% | inhibition [43] -3.96% | inhibition [44] 17.3%

O=C(Nc1cccnn1)N1CCC(=Cc2cccc(Oc3ccc(C(F)(F)F)cn3)c2)CC1
inactive: residual activity [1] 100% | residual activity [2] 76% | residual activity [3] 100% | residual activity [4] 100% | residual activity [5] 73% | residual activity [6] 72% | residual activity [7] 92% | residual activity [8] 95% | residual activity [9] 95% | residual activity [10] 73% | residual activity [11] 68% | residual activity [12] 99% | residual activity [13] 84% | residual activity [14] 69% | residual activity [15] 100% | residual activity [16] 100% | residual activity [17] 100% | residual activity [18] 100% | residual activity [19] 69% | residual activity [20] 100% | residual activity [21] 87% | residual activity [22] 100% | residual activity [23] 100% | residual activity [24] 100% | residual activity [25] 100% | residual activity [26] 100% | residual activity [27] 92% | residual activity [28] 100% | residual activity [29] 72% | residual activity [30] 100% | residual activity [31] 100% | residual activity [32] 75% | residual activity [33] 100% | residual activity [34] 100% | residual activity [35] 100% | residual activity [36] 100% | residual activity [37] 100% | residual activity [38] 100% | residual activity [39] 100% | residual activity [40] 98% | inhibition [41] 40.6% | inhibition [42] -6.93% | inhibition [43] 17.3% | inhibition [44] 8.73%
